Source: patent US20180073018A1, “COMPOSITIONS AND METHODS FOR SPECIFIC REACTIVATION OF HIV LATENT RESERVOIR” (priority 2015, published 2018)

Columns and labels:
Type in all cases: cell-based
HIV-1 LTR promoter [1] = assay: dCas9-VP64/sgRNA reactivation of latent LTR-luciferase reporter in TZM-bI cells; conditions: sgRNA/dCas9-VP64 cotransfection, 3 days, relative to empty sgRNA control
From the text: FIG. 1A, FIG. 1B, and FIG. 1C, depict results of experiments comprising HIV-1 LTR-gRNA screening for dCas9-VP64-induced reactivation of latent LTR-luciferase reporter in TZM-bI cells. FIG. 1A is a schematic illustration depicting HIV-gRNA target sites. FIG. 1B is a schematic depicting gRNA/dCas9-VP64 binding to a target region of HIV-LTR that drives luciferase expression in TZM-bI cells. FIG. 1C depicts the results of experiments investigating the reactivation of HIV-LTR (as measured by luciferase reporter) induced by the various gRNAs. […] After 3 days, the luminescence of the cell lysate was measured with OneGlo luminescence kit. […]
Cultured cells were transfected using lipofectamine3000 transfection or lentivirus infection. The firefly-luciferase reporter assay was used using Envision multiplate reader. Treated and controls were imaged using fluorescent microscopy and/or were analyzed using flow cytometry. […]
(§1) Cells were cultured in a 96-well plate and transfected or transduced with indicated vectors. To examine the eLuc reporter activity, the cell lysate was prepared using the ONE-Glo luciferase assay system (Promega) and luminescence was measured in a 2104 ENVISION® Multilabel Reader (PerkinElmer). […]

HIV-1 LTR promoter [2] = assay: dCas9-VP64/MS2-p65-HSF1 (SAM, dCas9-VPH) with MS2-sgRNA: EcoHIV-eLuc reporter assay in HEK293T cells; conditions: MS2-sgRNA/dCas9-VP64/MS2-p65-HSF1, pEcoHIV-NL4-3-eLuc, MS2-p65-HSF1 only = 1.00
From the text: FIG. 2A, FIG. 2B, and FIG. 2C, depict results of experiments comprising HIV-1 LTR-MS2-gRNA screening for LTR reactivation by SAM complex dCas9-VP64/MS2-p65-HSF1 in HEK293T cells. FIG. 2A and FIG. 2B depict a schematic of complex formation at the target site, where the complex comprises MS2-binding gRNA, dCas9-VP64, and MS2-p65-HSF1. FIG. 2C is a graph depicting the results of experiments investigating the reactivation of HIV-LTR induced by the various MS2-binding gRNA using pEcoHIV-NL4-3-eLuc reporter assay. […]
as §1
Thus, the newly-developed MS2-mediated SAM system was applied (FIG. 8A), which combined dCas9-VP64 with MS2-p65-HSF1 clustered trans-activators, designated dCas9-VPH (Konermann et al., 2015, Nature 517:583-8). […] To determine if dCas9-VPH/msgRNAs induced a better reactivation of HIV-1 latency, HIV-latent TZM-bI cells was cotransfected or cotransduced with dCas9-VPH and indicated msgRNAs (FIG. 8C) and the latency-reversing capability was measured. […]

HIV-1 LTR promoter [3] = assay: dCas9-VPH/msgRNA (or SAHA) reactivation of latent LTR-eLuc reporter in TZM-bI cells; conditions: TZM-bI, transient transfection or lentivirus infection, 2 days
Protocol: Cells were plated in 96-well plate and the indicated MS2-gRNAs were cotransfected by Lipofectamine 3000 (FIG. 3A) or coinfected by lentiviruses (FIG. 3B, MOI=50) with pMSCV-LTR-dCas9-VP64-BFP plus pLV-MS2-p65-HSF1-GFP. Two days later, OneGlo luminescence assay was performed. The SIV MS2-gRNA-D was used as negative control. […] The gRNA-J has no effect due to 2 nucleotides mismatch to the LTR sequence from TZM-bI cells.
FIG. 8A, FIG. 8B, FIG. 8C, and FIG. 8D, depict the results of experiments of screening of MS2-mediated sgRNAs (msgRNAs) targeting the HIV-1 long terminal repeat (LTR) in the dCas9-synergistic activation mediator (SAM) system. FIG. 8A is a schematic illustration of SAM-VPH complex derived from dCas9-VP64 (V) and MS2-p65-HSF1 (PH) with msgRNAs. FIG. 8B is a graph showing similar activation of transfected EcoHIV-eLuc reporter by inducible (TRE) or constitutive (LTR) dCas9-VP64 expression in HEK293T cells. FIG. 8C is a graph showing similar reactivation of latent HIV-LTR-eLuc reporter in TZM-bI cells after either transient plasmid transfection by Lipofectamine 3000 or stable infection by lentivirus. […] The gRNA-J has no effect due to 2 nucleotides mismatch to the LTR sequence from TZM-bI cells. […]
FIG. 9A and FIG. 9B: TZM-bI cells were infected with dCas9-VPH and indicated msgRNA lentiviruses at 1 or 10 MOI and luciferase activity was measured at 2-21 days post-infection (dpi). […]
FIG. 12A, FIG. 12B, FIG. 12C: The dCas9-VPH stable TZM-bI cells were treated with SAHA or infected with indicated msgRNAs lentivirus for 2-4 d before luminescence reporter assay (FIG. 12A) and CELLTITER-GLO® luminescent cell viability assay (FIG. 12B). […]
Experiments were conducted to compare reactivation of HIV-LTR luciferase reporter in TZM-BI cells induced by gRNA/dCas9-VP64/MS2-p65-HSF1/delivered by either transient plasmid transfection (FIG. 3A) or stable lentivirus infection (FIG. 3B). […] Two days later, OneGlo luminescence assay was performed. […]

Row | Substance | sgRNA TZM-bI Fold (LTR-luciferase reporter) (HIV-1 LTR promoter [1]) [Fold] | MS2-sgRNA HEK293T Fold (EcoHIV-eLuc reporter) (HIV-1 LTR promoter [2]) [Fold] | reactivation of HIV-LTR-luciferase reporter (in words) (HIV-1 LTR promoter [3])
1 | LTR-P | 1.15 | 1.32 | 
2 | MS2-p65-HSF1: MS2 bacteriophage coat protein fused to p65 and HSF1 transactivation domains (SEQ ID NO: 108) |  |  | did not influence the basal activity
